Data published in PubChem BioAssay (NCI).
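Growth conditions: 96-well plates. Treatment: test compound, 48 hours, 5 concentrations. Analysis: linear interpolation between bracketing concentrations; unreached endpoints set to highest concentration. At the TGI there is no net growth.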

How the values were obtained:
Test in all cases: NCI-60 cell line screen, 48 h
[1] = test system: 786-0 renal
[2] = test system: U251 CNS
[3] = test system: SK-MEL-2 melanoma
[4] = test system: SF-295 CNS
[5] = test system: NCI-H522 lung
[6] = test system: HCC-2998 colon
[7] = test system: EKVX NSCLC
[8] = test system: K-562 leukemia
[9] = test system: HL-60(TB) leukemia
[10] = test system: MDA-N
[11] = test system: BT-549 breast
[12] = test system: SR leukemia
[13] = test system: UACC-62 melanoma
[14] = test system: NCI-H460 lung
[15] = test system: SK-MEL-28 melanoma
[16] = test system: RPMI-8226 leukemia
[17] = test system: A498 renal
[18] = test system: ACHN renal
[19] = test system: MCF7 breast
[20] = test system: CAKI-1 renal
[21] = test system: RXF 393 renal
[22] = test system: SW-620 colon
[23] = test system: T-47D breast
[24] = test system: NCI-H226 lung
[25] = test system: SNB-19 CNS
[26] = test system: NCI/ADR-RES ovarian
[27] = test system: CCRF-CEM leukemia
[28] = test system: UACC-257 melanoma
[29] = test system: OVCAR-8 ovarian
[30] = test system: M14 melanoma
[31] = test system: HCT-15 colon
[32] = test system: HT29 colon
[33] = test system: A549 NSCLC
[34] = test system: SN12C renal
[35] = test system: IGROV1 ovarian
[36] = test system: SNB-75 CNS
[37] = test system: MDA-MB-435
[38] = test system: COLO 205 colon
[39] = test system: SK-MEL-5 melanoma
[40] = test system: SF-268 CNS
[41] = test system: LOX IMVI melanoma
[42] = test system: MDA-MB-231 breast
[43] = test system: SF-539 CNS
[44] = test system: OVCAR-5 ovarian
[45] = test system: MOLT-4 leukemia
[46] = test system: OVCAR-3 ovarian
[47] = test system: HOP-62 NSCLC
[48] = test system: HCT-116 colon
[49] = test system: HS 578T breast
[50] = test system: TK-10 renal
[51] = test system: DU-145 prostate
[52] = test system: NCI-H23 lung
[53] = test system: OVCAR-4 ovarian
[54] = test system: SK-OV-3 ovarian
[55] = test system: HOP-92 NSCLC
[56] = test system: MALME-3M melanoma
[57] = test system: UO-31 renal

SMILES: COc1ccc(-c2cc(=O)c3c(OC)c(OC)c(OC)c(OC)c3o2)cc1OC
- TGI [1]: > 100 µM
- TGI [2]: > 100 µM
- TGI [3]: > 100 µM
- TGI [4]: > 100 µM
- TGI [5]: > 100 µM
- TGI [6]: > 100 µM
- TGI [7]: > 100 µM
- TGI [8]: > 100 µM
- TGI [9]: 59 µM
- TGI [10]: > 100 µM
- TGI [11]: > 100 µM
- TGI [12]: > 100 µM
- TGI [13]: 72.4 µM
- TGI [14]: > 100 µM
- TGI [15]: > 100 µM
- TGI [16]: > 100 µM
- TGI [17]: > 100 µM
- TGI [18]: > 100 µM
- TGI [19]: > 100 µM
- TGI [20]: > 100 µM
- TGI [21]: > 100 µM
- TGI [22]: > 100 µM
- TGI [23]: 70.6 µM
- TGI [24]: > 100 µM
- TGI [25]: > 100 µM
- TGI [26]: 97.1 µM
- TGI [27]: > 100 µM
- TGI [28]: > 100 µM
- TGI [29]: > 100 µM
- TGI [30]: > 100 µM
- TGI [31]: > 100 µM
- TGI [32]: > 100 µM
- TGI [33]: > 100 µM
- TGI [34]: > 100 µM
- TGI [35]: > 100 µM
- TGI [36]: > 100 µM
- TGI [37]: > 100 µM
- TGI [38]: > 100 µM
- TGI [39]: > 100 µM
- TGI [40]: > 100 µM
- TGI [41]: > 100 µM
- TGI [42]: > 100 µM
- TGI [43]: > 100 µM
- TGI [44]: > 100 µM
- TGI [45]: 70.3 µM
- TGI [46]: > 100 µM
- TGI [47]: > 100 µM
- TGI [48]: > 100 µM
- TGI [49]: 95.3 µM
- TGI [50]: > 100 µM
- TGI [51]: > 100 µM
- TGI [52]: > 100 µM
- TGI [53]: > 100 µM
- TGI [54]: > 100 µM
- TGI [55]: 74.4 µM
- TGI [56]: > 100 µM
- TGI [57]: > 100 µM
